Here are results for 17 compounds from article PMC5920526 (ACS catalysis, 2017).

In the assay the test system is SpNanC. As to the kind of experiment: Substrate specificity of SpNanC with pNP-tagged α2–3-linked sialosides. The assay is classed as biochemical, Streptococcus pneumoniae. To be noted: for Percentage conversion: sialoside as substrate of SpNanC; for yield of cleavage by SpNanC: reactions using 3 μg of SpNanC.

Turning to `O=C(O)[C@]1(O[C@H]2[C@@H](O)[C@@H](CO)O[C@@H](Oc3ccc([N+](=O)[O-])cc3)[C@@H]2O)C[C@H](O)[C@@H](O)[C@H]([C@H](O)[C@H](O)CO)O1` [Kdnα2–3GalβpNP], the Percentage conversion stood at 4.50 ± 0.45%.
Compound `COCC(O)C(O)C1OC(OC2C(O)C(CO)OC(Oc3ccc([N+](=O)[O-])cc3)C2O)(C(=O)O)CC(O)C1NC(=O)CO` (stereo not shown) [Neu5Gc9OMeα2–3GalβpNP] yielded a Percentage conversion of 75.0 ± 1.9%.
On the same count and under the same terms, the figure for `[N-]=[N+]=NC1C(O)CC(OC2C(O)C(CO)OC(Oc3ccc([N+](=O)[O-])cc3)C2O)(C(=O)O)OC1C(O)C(O)CO` (stereo not drawn) [Kdn5N3α2–3GalβpNP] is 0.32 ± 0.45%.
Still for that read-out and setting: the same measure for `[N-]=[N+]=NCC(=O)N[C@H]1[C@H]([C@H](O)[C@H](O)CO)O[C@@](O[C@H]2[C@@H](O)[C@@H](CO)O[C@@H](Oc3ccc([N+](=O)[O-])cc3)[C@@H]2O)(C(=O)O)C[C@@H]1O` [Neu5AcN3α2–3GalβpNP]: 87.9 ± 1.6%; for `COCC(O)C(O)C1OC(OC2C(O)C(CO)OC(Oc3ccc([N+](=O)[O-])cc3)C2O)(C(=O)O)CC(O)C1O` (stereo not shown) [Kdn9OMeα2–3GalβpNP]: 4.02 ± 1.36%.
Consider `O=C(O)C1(OC2C(O)C(CO)OC(Oc3ccc([N+](=O)[O-])cc3)C2O)CC(O)C(O)C(CC(O)CO)O1` (stereo not shown) [Kdn7deoxyα2–3GalβpNP], for which the “yield of cleavage by SpNanC” value amounted to 10% and the Percentage conversion was 10.1 ± 0.0%.
Turning to `[N-]=[N+]=NCC(O)C(O)C1OC(OC2C(O)C(CO)OC(Oc3ccc([N+](=O)[O-])cc3)C2O)(C(=O)O)CC(O)C1NC(=O)CO` (stereo not drawn) [Neu5Gc9N3α2–3GalβpNP], the Percentage conversion was 89.5 ± 3.5%.
On the same count and under the same terms, the same measure for `CC(=O)NC1C(O)CC(OC2C(O)C(CO)OC(Oc3ccc([N+](=O)[O-])cc3)C2O)(C(=O)O)OC1C(F)C(O)CO` (stereo not shown) [Neu5Ac7Fα2–3GalβpNP]: 91.0 ± 4.3%; for `COC(C(O)CO)C1OC(OC2C(O)C(CO)OC(Oc3ccc([N+](=O)[O-])cc3)C2O)(C(=O)O)CC(O)C1NC(C)=O` (stereo not shown) [Neu5Ac7OMeα2–3GalβpNP]: 96.5 ± 1.7%; for `CC(=O)N[C@H]1[C@H]([C@H](O)[C@H](O)CF)O[C@@](O[C@H]2[C@@H](O)[C@@H](CO)O[C@@H](Oc3ccc([N+](=O)[O-])cc3)[C@@H]2O)(C(=O)O)C[C@@H]1O` [Neu5Ac9Fα2–3GalβpNP]: 75.6 ± 3.9%.
Take `CO[C@@H]([C@@H]1O[C@](O[C@H]2[C@@H](O)[C@@H](CO)O[C@@H](Oc3ccc([N+](=O)[O-])cc3)[C@@H]2O)(C(=O)O)C[C@H](O)[C@H]1O)[C@H](O)CO` [Kdn7OMeα2–3GalβpNP]: the “yield of cleavage by SpNanC” value is listed as 23% and the Percentage conversion was 23.4 ± 3.3%.
In the case of `COCC(O)C(O)C1OC(OC2C(O)C(CO)OC(Oc3ccc([N+](=O)[O-])cc3)C2O)(C(=O)O)CC(O)C1NC(C)=O` (stereo not shown) [Neu5Ac9OMeα2–3GalβpNP], the Percentage conversion is on record as 88.5 ± 5.1%.
On the same count and under the same terms, the same measure for `CC(=O)NC1C(O)CC(OC2C(O)C(CO)OC(Oc3ccc([N+](=O)[O-])cc3)C2O)(C(=O)O)OC1C(N=[N+]=[N-])C(O)CO` (stereo not drawn) [Neu5Ac7N3α2–3GalβpNP]: 65.9 ± 1.1%; for `CC(=O)NC1C(O)CC(OC2C(O)C(CO)OC(Oc3ccc([N+](=O)[O-])cc3)C2O)(C(=O)O)OC1C(O)C(C)O` (stereo not shown) [Neu5Ac9deoxyα2–3GalβpNP]: 93.5 ± 3.1%; for `O=C(CO)NC1C(O)CC(OC2C(O)C(CO)OC(Oc3ccc([N+](=O)[O-])cc3)C2O)(C(=O)O)OC1C(O)C(O)CO` (stereo not shown) [Neu5Gcα2–3GalβpNP]: 80.6 ± 6.7%.
With `O=C(O)C1(OC2C(O)C(CO)OC(Oc3ccc([N+](=O)[O-])cc3)C2O)CC(O)C(O)C(C(O)C(O)CF)O1` (stereo not shown) [Kdn9Fα2–3GalβpNP], the Percentage conversion is recorded as 3.70 ± 1.14%.
Compound `CC(=O)N[C@H]1[C@H](C[C@H](O)CO)O[C@@](O[C@H]2[C@@H](O)[C@@H](CO)O[C@@H](Oc3ccc([N+](=O)[O-])cc3)[C@@H]2O)(C(=O)O)C[C@@H]1O` [Neu5Ac7deoxyα2–3GalβpNP] showed a Percentage conversion of 91.2 ± 1.8%.
